{
  "source": "patent US12472195B2",
  "about": "“Inhalation formulations of antimicrobial compounds” (priority 2020, dated 2025)",
  "key": {"[1]": {"tested_on": "mouse lung tissue", "assay": "Lung histology examination after intratracheal administration in mice", "description": "The animal study was approved by the Animal Ethics Committee of the Monash Institute of Pharmaceutical Sciences, Monash University (Parkville, Victoria, Australia). All experiments were conducted in accordance with the Australian Code of Practice for the Care and Use of Animals for Scientific Purposes. Swiss Albino mice (female; age, 6 weeks; body weight, 20 to 25 g) were obtained from the Monash Animal Research Platform (Clayton, Victoria, Australia). […] The animals were housed individually in metabolic cages and had free access to food and water. Mice were intratracheally administered 10 mg/kg of polymyxin B, 60 mg/kg of tobramycin and the combination of tobramycin with polymyxin B in sterile 0.9% saline three times a day and lung histology examination were conducted in a blind manner."}, "[2]": {"tested_on": "human lung epithelial A549 cells", "description": "Human lung epithelial cells (A549 cells) were obtained from American Type Culture Collection (ATCC® CCL-185™, Manassas, VA, USA), grown and sub-cultured in Dulbecco's modified Eagle's medium (DMEM) supplemented with 10% fetal bovine serum (FBS). A549 cells (1×10^5 cells/mL, 12-well plate) were seeded in supplemented DMEM at 37° C. in a humidified atmosphere containing 5% CO2 until 80% confluency. All experiments were conducted in three replicates. Cells were treated with 1.0 mM polymyxin B in the presence and absence of tobramycin (1.0, 3.0, 5.0, 10.0 and 20.0 mM), amikacin (5.0 and 20.0 mM), gentamicin (5.0, 10.0 and 20.0 mM) and plazomicin (5.0 and 20.0 mM) in supplemented DMEM (1% FBS); and cell viability were examined at 24h with flow cytometry after staining with propidium iodide."}, "[3]": {"conditions": "mice, intratracheal, three times a day, 10 mg/kg polymyxin B, 60 mg/kg tobramycin, or both"}},
  "note": "Where two headings read alike, the source gives them in different places.",
  "data": [
    {"molecule": "polymyxin B", "values": [
      {"measurement": "area of lung tissue affected by damage", "setting": "[1]; [3]", "result": "25-50%"},
      {"measurement": "semi-quantitative score (SQS) of lung histology", "setting": "[1]; [3]", "result": "+2 to +5"},
      {"measurement": "cell viability", "setting": "[2]; 1.0 mM polymyxin B alone, A549 cells, 24h, mean±SD n=3", "result": "40.7±7.4", "unit": "%"}
    ]},
    {"molecule": "NC[C@H]1O[C@H](O[C@H]2[C@H](O)[C@@H](O[C@H]3O[C@H](CO)[C@@H](O)[C@H](N)[C@H]3O)[C@H](N)C[C@@H]2N)[C@H](N)C[C@@H]1O", "note": "[Tobramycin, tobramycin]", "values": [
      {"measurement": "effect on polymyxin B-induced pulmonary toxicity", "setting": "[1]; mouse, in vivo", "result": "significantly reduced"},
      {"measurement": "cell viability", "setting": "[2]; human, 24 h, 20 mM", "result": "87.4±1.6", "unit": "%"}
    ]}
  ]
}
